What was measured:
mouse embryos = assay: mouse preimplantation development and embryo quality; type: cell-based
Procedure: (§1) Embryos, mouse and human, were cultured in Global Total (Life-Global) for the duration of the experiments and with added compounds as outlined below. Incubation in RNA polymerase inhibitors triptolide (1 mM) or alpha amanitin (20 mg/ml) was performed from the 2PN stage (day1) to day3 of human development. Incubation in aphidicolin was performed at 2 mM. […] Mirin was used at a concentration of 50 mM. Olaparib was used to inhibit PARP at a concentration of 10 mM. All experiments were conducted during incubation at 37° C. with 5% CO2 and 19-20% O2. Chemical stock solutions were prepared in DMSO at concentrations at least 1000× higher than the final concentration.
(§2) Mouse oocytes were activated at 1-6 hours post retrieval using 2 mM ionomycin (Sigma Aldrich) in Global Total medium for 5 minutes at 37° C. followed by culture in 10 mM puromycin and 5 mg/ml cytochalasin B for 3 hours, then cytochalasinB only for 2 hours and 10 minutes to prevent second polar body extrusion.
(§3) Following the experimental exposures, mouse and human embryos were fixed in 2% paraformaldehyde (PFA) and 0.25% Triton X-100 in PBS for 10 minutes at room temperature, serially washed in phosphate-buffered solution (PBS) at room temperature, then stored in PBS at 4° C. until staining and imaging. Embryos were placed in 10-20 ml droplets of primary antibody solution within plastic tissue culture dishes covered with mineral oil for 1 hour at room temperature, serially washed (×2) in PBS containing 0.01% Triton X-100 to prevent embryos sticking to oil, then transferred to 10-20 ml secondary antibody solution and Hoechst (dilution 1:500) for 30 minutes. Embryos were then serially washed (×2) and placed in 5 ml droplets of PBS with 0.5% serum albumin in uncoated glass bottom dishes (Mattek) covered with embryo culture oil for imaging. The following primary antibodies were used across experiments as described above: Oct-4, γH2AX, RPA32, RPA32 S4/S8, RPA32 S33, 53BP1, RAD51, Centromere, and phospho-CHK1. Phospho-specific antibodies were quality controlled through ATR dependence of foci formation in mouse zygotes, and for γH2AX also in human zygotes. […] The appropriate secondary antibodies conjugated with Alexa Fluor 488, Alexa Fluor 555, CF 568, or Alexa Fluor 647 were diluted at 1:500-1:1000. Ethynyl deoxyuridine (EdU) labeling of zygotes and embryos was performed using the labeling kit (Thermo Fisher Scientific) as described by the manufacturer. 10 mM EdU was added to culture medium for 1 h at the indicated time points, and cells were harvested and fixed thereafter. 5-ethynyl uridine (EU) labeling was performed by incubating day3 cleavage stage embryos for 4 hours in Global total containing 0.2 mM EU.
(§4) Embryos were imaged with confocal microscopy using a Zeiss LSM (LSM 710) at a magnification of 63× and the Zeiss Zen software. Images were obtained using 488-, 543- and 633-nm lasers and bright-field microscopy. The number of confocal sections was adjusted to capture the entire nucleus or the entire embryo according to the experimental design as described above. Cell numbers and staining foci numbers were counted manually. Nuclei were identified by the presence of Hoechst33342. Foci were identified if at least 3× greater intensity than nuclear average, spherical in appearance, and overlapping with Hoechst33342 staining. Inner cell masses were identified by the presence of Oct4 within a blastocyst embryo. Active DNA replication was identified by the presence of EdU. DNA damage was identified by the detection of γH2AX and RPA foci within the nucleus. Mechanisms of DNA repair were identified through the detection of RPA S4/S8, RPA S33, Rad51 and 53BP1 foci within the nucleus.

human embryos [1] = assay: nucleation and development of human embryos; type: cell-based; conditions: 2PN zygotes incubated days 1 to 3, versus untreated cleavage-stage embryos
Source text: Cryopreserved human cleavage-stage and blastocyst embryos and unfertilized oocytes were anonymously donated from individuals and couples who provided consent for use in research. Embryos were of good quality and had been cryopreserved for potential clinical use but were then no longer needed and donated for research. The cause of treatment is not disclosed. Range of maternal age of donated embryos is between 27-43. Embryos of both sexes were used, as provided by the unbiased fertilization of oocytes with sperm carrying either a Y or X chromosome. Cleavage stage embryos were thawed using the one-step thaw protocol using Global total with HEPES. Blastocyst stage embryos were thawed using the Quinn's Advantage thaw kit, then exposed to experimental conditions as outlined below. Vitrified embryos were thawed with the ECMPC warming solution set. Embryo culture was performed in Global Total. All experiments were conducted during incubation at 37° C. with 5% CO2 and 20% 02.
as §1
(§5) Following the experimental exposures, mouse and human embryos were fixed in 2% paraformaldehyde (PFA) and 0.25% Triton X-100 in PBS for 10 minutes at room temperature, serially washed in phosphate-buffered solution (PBS) at room temperature, then stored in PBS at 4° C. until staining and imaging. Embryos were placed in 10-20 ml droplets of primary antibody solution within plastic tissue culture dishes covered with mineral oil for 1 hour at room temperature, serially washed (×2) in PBS containing 0.01% Triton X-100 to prevent embryos sticking to oil, then transferred to 10-20 ml secondary antibody solution and Hoechst (dilution 1:500) for 30 minutes. Embryos were then serially washed (×2) and placed in 5 ml droplets of PBS with 0.5% serum albumin in uncoated glass bottom dishes (Mattek) covered with embryo culture oil for imaging. […]
Embryos were imaged with confocal microscopy using a Zeiss LSM (LSM 710) at a magnification of 63× and the Zeiss Zen software. […] Cell numbers and staining foci numbers were counted manually. […]

human embryos [2] = assay: ethynyl uridine label incorporation in human embryos; type: cell-based; conditions: incubation from days 1 to 3
Procedure: as §1
as §5, with “minutes.” for “minutes. Embryos were then serially washed (×2) and placed in 5 ml droplets of PBS with 0.5% serum albumin in uncoated glass bottom dishes (Mattek) covered with embryo culture oil for imaging.”

human zygotes = assay: DNA damage foci immunostaining in human zygotes/parthenotes; type: cell-based
Procedure: as §1
Artificial activation of human MII oocytes was performed using two pulses of 2.7 kV/cm at 50 ms using ECFG21 (Nepagene) in fusion buffer consisting of 0.25 M d-sorbitol buffer containing 0.1 mM calcium acetate, 0.5 mM magnesium acetate, 0.5 mM HEPES, and 1 mg ml^−1 fatty-acid-free BSA as previously described (Tachibana et al., 2013). Thereafter, oocytes were incubated for 3.5-4 h in 10 mg/ml puromycin, followed by a wash step and following culture in Global total.
as §3, with “phospho-CHK1.” for “phospho-CHK1. Phospho-specific antibodies were quality controlled through ATR dependence of foci formation in mouse zygotes, and for γH2AX also in human zygotes.”
as §4

mouse zygotes = assay: DNA damage foci immunostaining in mouse zygotes/embryos; type: cell-based; conditions: mouse zygotes, mirin combined with aphidicolin
Procedure: as §1, §2, §3, §4

ATR = ATR (Homo sapiens, UniProt Q13535); conditions: cited from earlier work
ATR, sequence (Q13535 whole entry): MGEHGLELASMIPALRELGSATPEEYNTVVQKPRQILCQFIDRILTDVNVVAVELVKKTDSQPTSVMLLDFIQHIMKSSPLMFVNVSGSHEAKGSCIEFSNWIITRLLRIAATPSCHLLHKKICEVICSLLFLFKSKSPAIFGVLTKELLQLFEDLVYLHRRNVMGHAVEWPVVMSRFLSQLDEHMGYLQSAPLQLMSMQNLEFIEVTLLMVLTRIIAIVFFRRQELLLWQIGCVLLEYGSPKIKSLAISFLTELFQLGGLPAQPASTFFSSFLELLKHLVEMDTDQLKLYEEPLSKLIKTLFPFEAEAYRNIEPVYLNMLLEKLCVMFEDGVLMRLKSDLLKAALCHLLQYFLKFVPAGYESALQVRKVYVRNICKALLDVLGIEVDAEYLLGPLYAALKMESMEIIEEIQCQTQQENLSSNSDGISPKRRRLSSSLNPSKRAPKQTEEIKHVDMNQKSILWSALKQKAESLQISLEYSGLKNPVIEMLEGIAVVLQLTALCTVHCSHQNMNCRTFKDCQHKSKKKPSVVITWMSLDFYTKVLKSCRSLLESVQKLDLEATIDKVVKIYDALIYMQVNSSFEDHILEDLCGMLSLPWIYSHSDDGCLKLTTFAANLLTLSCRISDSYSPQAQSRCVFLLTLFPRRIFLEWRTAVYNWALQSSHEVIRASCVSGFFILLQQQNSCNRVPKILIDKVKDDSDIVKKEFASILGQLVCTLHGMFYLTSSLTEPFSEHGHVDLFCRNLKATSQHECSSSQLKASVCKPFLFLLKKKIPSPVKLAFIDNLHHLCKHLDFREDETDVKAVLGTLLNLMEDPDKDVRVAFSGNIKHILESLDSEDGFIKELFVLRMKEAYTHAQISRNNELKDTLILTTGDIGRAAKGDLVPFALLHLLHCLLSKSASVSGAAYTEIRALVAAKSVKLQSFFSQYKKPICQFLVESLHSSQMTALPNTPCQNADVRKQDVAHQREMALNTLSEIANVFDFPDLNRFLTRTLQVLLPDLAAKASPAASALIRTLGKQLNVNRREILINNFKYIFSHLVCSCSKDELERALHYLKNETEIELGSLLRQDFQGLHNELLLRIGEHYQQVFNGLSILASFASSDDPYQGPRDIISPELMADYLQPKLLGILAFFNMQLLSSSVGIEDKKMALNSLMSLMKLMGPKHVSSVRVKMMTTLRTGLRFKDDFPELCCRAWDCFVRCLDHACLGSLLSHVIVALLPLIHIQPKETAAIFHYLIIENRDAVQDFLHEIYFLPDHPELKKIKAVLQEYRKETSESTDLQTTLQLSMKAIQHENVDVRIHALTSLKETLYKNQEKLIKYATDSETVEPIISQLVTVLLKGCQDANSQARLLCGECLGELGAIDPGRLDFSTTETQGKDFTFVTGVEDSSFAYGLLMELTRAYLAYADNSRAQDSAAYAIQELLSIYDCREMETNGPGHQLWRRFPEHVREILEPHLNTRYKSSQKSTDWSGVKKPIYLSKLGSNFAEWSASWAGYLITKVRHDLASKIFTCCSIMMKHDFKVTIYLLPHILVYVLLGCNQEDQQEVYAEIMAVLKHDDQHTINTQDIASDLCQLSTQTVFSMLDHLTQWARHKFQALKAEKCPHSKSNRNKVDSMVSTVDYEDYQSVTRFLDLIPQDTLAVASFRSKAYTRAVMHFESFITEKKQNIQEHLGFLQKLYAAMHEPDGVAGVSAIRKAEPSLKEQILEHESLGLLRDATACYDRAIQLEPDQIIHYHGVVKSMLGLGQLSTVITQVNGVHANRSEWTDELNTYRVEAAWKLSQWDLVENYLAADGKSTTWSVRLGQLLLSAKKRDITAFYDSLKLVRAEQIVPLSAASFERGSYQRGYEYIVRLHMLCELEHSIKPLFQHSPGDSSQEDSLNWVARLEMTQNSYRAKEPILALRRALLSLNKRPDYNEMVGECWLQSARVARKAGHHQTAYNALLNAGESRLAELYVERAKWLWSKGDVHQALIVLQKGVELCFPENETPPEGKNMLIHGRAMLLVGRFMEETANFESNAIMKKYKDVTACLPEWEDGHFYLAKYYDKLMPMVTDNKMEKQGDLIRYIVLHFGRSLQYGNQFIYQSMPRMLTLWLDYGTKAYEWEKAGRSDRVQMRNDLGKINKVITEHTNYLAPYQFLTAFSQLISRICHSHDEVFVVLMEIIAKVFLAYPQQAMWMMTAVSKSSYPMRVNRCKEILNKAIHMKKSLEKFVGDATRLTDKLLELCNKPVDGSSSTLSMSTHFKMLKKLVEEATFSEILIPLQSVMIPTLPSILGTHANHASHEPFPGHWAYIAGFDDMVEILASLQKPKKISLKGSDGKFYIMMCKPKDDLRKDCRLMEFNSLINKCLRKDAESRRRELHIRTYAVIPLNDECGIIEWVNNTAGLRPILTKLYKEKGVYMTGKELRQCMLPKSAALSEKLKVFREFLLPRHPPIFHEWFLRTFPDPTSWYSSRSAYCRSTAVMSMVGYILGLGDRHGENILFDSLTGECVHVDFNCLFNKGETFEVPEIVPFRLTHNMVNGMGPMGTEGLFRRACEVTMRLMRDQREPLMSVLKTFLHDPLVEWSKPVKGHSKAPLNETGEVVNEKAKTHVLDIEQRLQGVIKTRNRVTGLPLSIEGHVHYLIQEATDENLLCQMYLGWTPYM
ATR, sequence (Q8WXE1 whole entry partner): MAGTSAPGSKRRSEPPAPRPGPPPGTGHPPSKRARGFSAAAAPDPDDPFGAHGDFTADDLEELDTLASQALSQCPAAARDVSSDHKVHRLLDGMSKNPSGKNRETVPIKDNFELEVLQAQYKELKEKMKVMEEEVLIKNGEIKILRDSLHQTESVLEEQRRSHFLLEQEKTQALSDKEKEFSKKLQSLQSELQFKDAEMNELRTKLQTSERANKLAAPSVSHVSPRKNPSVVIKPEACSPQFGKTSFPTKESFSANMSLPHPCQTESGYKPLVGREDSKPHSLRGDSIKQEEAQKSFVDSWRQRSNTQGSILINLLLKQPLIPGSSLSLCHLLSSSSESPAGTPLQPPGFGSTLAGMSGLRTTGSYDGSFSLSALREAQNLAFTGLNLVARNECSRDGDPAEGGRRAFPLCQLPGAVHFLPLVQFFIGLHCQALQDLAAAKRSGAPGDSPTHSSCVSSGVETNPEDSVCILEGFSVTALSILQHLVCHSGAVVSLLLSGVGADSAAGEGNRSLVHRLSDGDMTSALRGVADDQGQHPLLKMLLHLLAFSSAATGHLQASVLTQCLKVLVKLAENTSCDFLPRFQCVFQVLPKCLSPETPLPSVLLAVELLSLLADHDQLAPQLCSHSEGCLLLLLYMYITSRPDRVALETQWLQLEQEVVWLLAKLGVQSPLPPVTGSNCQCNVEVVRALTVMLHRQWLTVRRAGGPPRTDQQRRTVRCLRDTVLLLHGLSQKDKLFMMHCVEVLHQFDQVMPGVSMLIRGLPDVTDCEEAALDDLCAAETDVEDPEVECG

mouse 1-cell embryos = assay: timing of mitotic entry in mouse 1-cell embryos; type: cell-based; conditions: G2 phase mouse embryos, compared with untreated controls
Procedure: as §1, §2

mouse 2-cell embryos = assay: single-cell sequencing chromosome content analysis, mouse 2-cell embryos; type: cell-based; conditions: mouse embryos, Wee1 kinase inhibitor added alongside aphidicolin
Procedure: as §1
Single cells from blastomeres were collected on the heated stage (Tokai Hit) of an Olympus IX71 inverted microscope equipped with Narishige micromanipulators and a zona pellucida laser (Hamilton-Thorne). Single nuclei were isolated from blastomeres by lysis and dissection of different nuclei using two […] diameter Piezo micropipettes and Holding pipette (Origio). Single embryo cells or nuclei were placed manually in single wells of a 96-well plate containing 9 ml of lysis buffer, prepared as a master mix of 798 ml H2O, 6 ml of 10 mg/mL Proteinase K solution (Sigma-Aldrich), and 96 ml 10× Single Cell Lysis and Fragmentation buffer (Sigma-Aldrich). Single cells/single nuclei were lysed by heating 96-well plates containing single cells/single nuclei at 50° C. for 1 hour, followed by incubation at 99° C. for four minutes using a PCR thermocycler. Single-cell/single-nuclei whole genome amplification (WGA) using degenerate oligo-nucleotide priming PCR (DOP-PCR) was performed using the SEQPLEX Enhanced DNA Amplification Kit (SEQXE, Sigma) according to the manufacturer's instructions. In addition, a modified version of the DOP-PCR protocol that allows inline indexing of WGA DNA was also applied. WGA DNA was subsequently processed for Illumina library sequencing preparation using standard TruSeq indexing methods via the NEBNext Ultra II DNA Library Prep Kit for Illumina (New England Biolabs). NEBNext Multiplex Oligos for Illumina (96 index primers) were used for four amplification cycles. Library DNA was quantified using Qubit dsDNA HS Assay Kit (Invitrogen, Carlsbad, CA, USA) and library size distribution was confirmed using a 2100 Bioanalyzer DNA 1000 Kit (Agilent, Santa Clara, CA, USA). A unimodal curve centered around 300-500 bp was scored as a successful library preparation. Subsequently, 30 mL of each pooled library was sent for sequencing at a concentration of 20 ng/ml. Mutiplex sequencing was performed using Illumina HiSeq 2500 single end indexed run (SR100) while targeting a coverage of approximately 1 million reads per cell/nuclei, sufficient for quantitative genome-wide copy number analysis.
Analysis of DNA sequencing data was performed as previously described (Baslan et al., 2015) with minor modifications as outlined below. Briefly, multiplex sequencing data were demultiplexed according to unique barcodes with reads assigned to their respective single-cell or single-nuclei. Unique reads were aligned to the reference human and mouse genome builds, hg19 and mm9, respectively. Each genome was partitioned into 5000 bins using a previously described algorithm (Varbin) that corrects for genome sequence mappability (Baslan et al., 2012; Navin et al., 2011). Uniquely mapped reads were sorted, indexed and subsequently counted within the partitioned genomic bins. For single-cell copy number inference, read count data were normalized genome-wide followed by CBS segmentation (Olshen et al., 2004) and transformed into integer copy number states using a least-squares fit approach (Baslan et al., 2015).

## CC(C)[C@]12O[C@H]1[C@@H]1O[C@]13[C@]1(O[C@H]1C[C@H]1C4=C(CC[C@@]13C)C(=O)OC4)[C@@H]2O [triptolide]
Mouse embryos; in the presence of the inhibitor
  mouse embryos developed beyond the two-cell stage: 0/15
Human embryos [1]
  micronucleation: comparable
Human embryos [2]
  embryos showing ethynyl uridine label incorporation: 0/4

## N=C1NC(=O)/C(=C/c2ccc(O)cc2)S1 [mirin]
Human zygotes; human zygotes, combined exposure to aphidicolin and mirin
  number of RAD51 foci, average: 50 sites
Mouse zygotes
  number of Rad51 foci: more than 50
  number of foci marked by γH2AX: more than 100

## CS(=O)(=O)c1ccc(-c2cnc(N)c(C(=O)Nc3ccccc3)n2)cc1 [ATR45]
Human zygotes; parthenogenetically activated oocytes, inhibitor from 14-18 h into the first cell cycle, relative to controls
  number of γH2AX foci: reduced significantly
ATR
  selectivity over related kinases ATM or DNA-PK: > 600 ×

## a-amanitin
Human embryos [1]
  micronucleation: comparable

## C=CCn1c(=O)c2cnc(Nc3ccc(N4CCN(C)CC4)cc3)nc2n1-c1cccc(C(C)(C)O)n1 [Wee1 kinase inhibitor]
Mouse 1-cell embryos
  advance of mitosis: 1.5 h
Mouse 2-cell embryos
  genome after mitosis: highly fragmented genome
Mouse embryos; treatment in G2 phase, compared with untreated controls
  developmental potential: impaired
